US8323896B2, “Epidermal growth factor (EGF) expression and/or polymorphisms thereof for predicting the risk of developing cancer” (The General Hospital Corporation, priority 2007, dated 2012)
Entries after “also recorded” stand apart in the source; their conditions may differ.

Legend:
THLE-5B cells [1] = assay: Anchorage-independent transformation (over-agar) assay in THLE-5B cells; type: cell-based, human; conditions: 10 ng/ml EGF, inhibitor 0.01 μM to 1.0 μM, colonies counted after 14 days
Method: Cells and Culture Conditions. The normal human liver epithelial cell line, THLE-5B, was kindly provided by Curtis Harris (NCI, National Institutes of Health, Bethesda, Md.). THLE-5B cells were propagated in DMEM/F-12 (1:1; Invitrogen, Carlsbad, Calif.) with 10% fetal bovine serum (MediaTech CellGro, Herndon, Va.), that was supplemented with 100 units/ml penicillin, […] streptomycin (both from Invitrogen), 10 μg/ml insulin, 10 μg/ml transferrin and 10 ng/ml selenium (ITS; Lonza, Walkersville, Md.). Primary human hepatocytes were isolated as described before and cultured in HMM media (Lonza). Cells were maintained at 37° C. in a humidified incubator with 5% CO2 in air.
Chemicals. Stock solutions of AG1478 (Invitrogen), erlotinib (Tarceva™; Genentech, South San Francisco, Calif.) and gefitinib (Iressa™; AstraZeneca, Wilmington, Del.) were prepared in DMSO and stored at −20° C. EGF (Sigma, St. Louis, Mo.) stock solution was prepared in 10 mM acetic acid and diluted in PBS.
Anchorage-Independent Transformation Assay. Because cells suspended in soft agar cannot be easily recovered, the inventors used the previously described over-agar assay which allows for the analysis of molecular events associated with tumor promoter-induced cell transformation under anchorage-independent conditions. Briefly, 1×10^4 THLE-5B cells or isolated human hepatocytes were plated onto 0.5% BME agar containing the indicated concentrations of EGF and inhibitors. The plates were cultured for 14 days, after which colonies of transformed cells were counted using a microscope. The results represent one experiment and are presented as the mean±standard deviation of colony counts made by three separate investigators. The experiments were repeated twice to ensure qualitatively similar results.

THLE-5B cells [2] = assay: Cell growth (MTT) assay in THLE-5B cells; type: cell-based, human; conditions: inhibitor 0.01-1 μM; 72 h
Method: Cell Growth Assay. Briefly, THLE-5B cells were plated in triplicate at a density of 4×10^4 cells/ml in a 24-well plate. After 24 h, cells were washed once with PBS and medium containing inhibitors at the indicated concentrations or vehicle control was added. After 72 h, the effects of each inhibitor on growth of the cells was measured by colorimetric 3-(4,5-dimethylthiazol-2-yl)-2,5-diphenyltetrazolium bromide (MTT; Sigma) assay. The absorbance at 562 nm was measured using a spectrophotometric plate reader (Emax; Molecular Devices) and the experiment was repeated twice to ensure qualitatively similar results for each inhibitor.

HCC nodules = conditions: rat, DEN-induced cirrhosis; treatment during weeks 12-18; cited from earlier work

Compound | EGF mediated anchorage-independent transformation of THLE-5B cells (THLE-5B cells [1]) | cytotoxicity to THLE-5B cells as determined by MTT (THLE-5B cells [2]) | EGF mediated anchorage-independent transformation of THLE-5B cells (THLE-5B cells [1]; listed as Gefitnib) | formation of HCC nodules (HCC nodules)
COc1cc2ncnc(Nc3cccc(Cl)c3)c2cc1OC [AG1478, 4-(3-Chloroanillino)-6,7-dimethoxyquinazoline] | prevents EGF mediated anchorage-independent transformation; also recorded: inhibited | not cytotoxic | – | –
C#Cc1cccc(Nc2ncnc3cc(OCCOC)c(OCCOC)cc23)c1 [Erlotinib] | prevents EGF mediated anchorage-independent transformation; also recorded: inhibited | not cytotoxic | – | –
COc1cc2ncnc(Nc3ccc(F)c(Cl)c3)c2cc1OCCCN1CCOCC1 [Gefitinib] | inhibited | not cytotoxic | prevents EGF mediated anchorage-independent transformation | significantly reduced the formation of HCC nodules; also recorded: significantly reduced the formation of hepatocellular carcinoma nodules
